From the supplement of paper PMC11061612

Tests used:
Experiment in all cases: combination Emax (second highest fraction inhibited in the dose matrix, 72 h); higher = more inhibition; extreme values may be limits of the assay
[1] = system: A3-KAW (B-Cell Non-Hodgkin's Lymphoma)
How it was run: (§1)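 Cell lines grown in DMEM/F12 or RPMI with 10% FBS were plated in 1536-well plates and held 24 hours at 37°C, 5% CO2 before 72 hours of exposure to two-drug dose matrices, with DMSO typically at 0.2%. CellTiter-Glo 2.0 luminescence gave viability, which was converted to inhibition. Vehicle wells were set to 0 and blank wells to 1. Combination Emax is the second-highest inhibition in the matrix, and Bliss excess is the observed combination effect minus the expected EA + EB − EA·EB, where EA and EB are the single-agent effects.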

[2] = system: ONS-76 (Other Solid Carcinomas)
How it was run: as §1

[3] = system: HCC1954 (Breast Carcinoma)
How it was run: as §1

[4] = system: CAS-1 (Glioblastoma)
How it was run: as §1

[5] = system: NCI-H1581 (Non-Small Cell Lung Carcinoma)
How it was run: as §1

[6] = system: NCI-H1666 (Lung Adenocarcinoma)
How it was run: as §1

[7] = system: JSC-1 (B-Cell Non-Hodgkin's Lymphoma)
How it was run: as §1

[8] = system: NCI-H2066 (Squamous Cell Lung Carcinoma)
How it was run: as §1

[9] = system: CAL-29 (Bladder Carcinoma)
How it was run: as §1

[10] = system: COR-L311 (Small Cell Lung Carcinoma)
How it was run: as §1

[11] = system: A498 (Kidney Carcinoma)
How it was run: as §1

[12] = system: NCI-H1650 (Lung Adenocarcinoma)
How it was run: as §1

[13] = system: 8-MG-BA (Glioblastoma)
How it was run: as §1

[14] = system: KARPAS-422 (B-Cell Non-Hodgkin's Lymphoma)
How it was run: as §1

[15] = system: COLO-320-HSR (Colorectal Carcinoma)
How it was run: as §1

[16] = system: TT (Thyroid Gland Carcinoma)
How it was run: as §1

[17] = system: IGR-37 (Melanoma)
How it was run: as §1

[18] = system: BICR22 (Oral Cavity Carcinoma)
How it was run: as §1

[19] = system: PA-1 (Ovarian Carcinoma)
How it was run: as §1

[20] = system: SISO (Cervical Carcinoma)
How it was run: as §1

| Structure (SMILES) | combination Emax [1] | combination Emax [2] | combination Emax [3] | combination Emax [4] | combination Emax [5] | combination Emax [6] | combination Emax [7] | combination Emax [8] | combination Emax [9] | combination Emax [10] | combination Emax [11] | combination Emax [12] | combination Emax [13] | combination Emax [14] | combination Emax [15] | combination Emax [16] | combination Emax [17] | combination Emax [18] | combination Emax [19] | combination Emax [20] |
| --- | --- | --- | --- | --- | --- | --- | --- | --- | --- | --- | --- | --- | --- | --- | --- | --- | --- | --- | --- | --- |
| CN(C)CCCOc1ccc(-c2ccc3ncc4c(c3c2)n(C2CCOCC2)c(=O)n4C)cn1 [AZD0156] + C=CCn1c(=O)c2cnc(Nc3ccc(N4CCN(C)CC4)cc3)nc2n1-c1cccc(C(C)(C)O)n1 [AZD1775] (first compound max 1 µM, partner max 1 µM) | 0.95 | 0.675 | 0.181 | 0.464 | 0.331 | 0.314 | 0.868 | 0.208 | 0.642 | 0.56 | 0.544 | 0.385 | 0.74 | 0.607 | 0.719 | 0.271 | 0.706 | 0.516 | 0.789 | 0.566 |
| CN(C)CCCOc1ccc(-c2ccc3ncc4c(c3c2)n(C2CCOCC2)c(=O)n4C)cn1 [AZD0156] + CCN(CCO)CCCOc1ccc2c(Nc3cc(CC(=O)Nc4cccc(F)c4)[nH]n3)ncnc2c1 [AZD2811] (first compound max 1 µM, 7x7, partner max 1 µM) | 0.572 | 0.293 | 0.0882 | 0.263 | 0.271 | 0.211 | 0.19 | 0.192 | 0.284 | 0.815 | 0.172 | 0.101 | 0.215 | 0.641 | 0 | 0.359 | 0.0663 | 0.375 | 0.407 | 0.172 |
| CN(C)CCCOc1ccc(-c2ccc3ncc4c(c3c2)n(C2CCOCC2)c(=O)n4C)cn1 [AZD0156] + C[C@@H]1COCCN1C2=NC(=NC(=C2)C3(CC3)[S@](=N)(=O)C)C4=C5C=CNC5=NC=C4 [AZD6738] (first compound max 1 µM, 7x7, partner max 10 µM) | 0.995 | 0.942 | 0.435 | 0.582 | 0.418 | 0.331 | 0.916 | 0.35 | 0.772 | 0.408 | 0.703 | 0.376 | 0.834 | 0.653 | 0.652 | 0.429 | 0.781 | 0.724 | 0.85 | 0.588 |
| CN(C)CCCOc1ccc(-c2ccc3ncc4c(c3c2)n(C2CCOCC2)c(=O)n4C)cn1 [AZD0156] + O=C(c1cc(Cc2n[nH]c(=O)c3ccccc23)ccc1F)N1CCN(C(=O)C2CC2)CC1 [Olaparib] (first compound max 3 µM, partner max 3 µM) | 0.909 | 0.235 | 0.218 | 0.449 | 0.412 | 0.269 | 0.582 | 0.215 | 0.319 | 0.393 | 0.316 | 0.226 | 0.4 | 0.56 | 0.301 | 0.237 | 0.194 | 0.135 | 0.479 | 0.303 |
| C=CCn1c(=O)c2cnc(Nc3ccc(N4CCN(C)CC4)cc3)nc2n1-c1cccc(C(C)(C)O)n1 [AZD1775] + C1CN(CCC1(C(=O)N[C@@H](CCO)C2=CC=C(C=C2)Cl)N)C3=NC=NC4=C3C=CN4 [Capivasertib] (first compound max 3 µM, partner max 3 µM) | 0.987 | 0.76 | 0.914 | 0.709 | 0.857 | 0.55 | 0.911 | 0.685 | 0.839 | – | 0.671 | 0.61 | 0.975 | 0.856 | 0.854 | 0.264 | 0.813 | 0.594 | 0.866 | 0.731 |
| C=CCn1c(=O)c2cnc(Nc3ccc(N4CCN(C)CC4)cc3)nc2n1-c1cccc(C(C)(C)O)n1 [AZD1775] + C[C@@H]1COCCN1C2=NC(=NC(=C2)C3(CC3)[S@](=N)(=O)C)C4=C5C=CNC5=NC=C4 [AZD6738] (first compound max 1 µM, partner max 10 µM) | 0.992 | 0.942 | 0.77 | 0.657 | 0.771 | 0.49 | 0.905 | 0.605 | 0.794 | 0.801 | 0.682 | 0.53 | – | 0.786 | 0.821 | 0.441 | 0.787 | 0.799 | 0.883 | 0.822 |
| C=CCn1c(=O)c2cnc(Nc3ccc(N4CCN(C)CC4)cc3)nc2n1-c1cccc(C(C)(C)O)n1 [AZD1775] + O=C(c1cc(Cc2n[nH]c(=O)c3ccccc23)ccc1F)N1CCN(C(=O)C2CC2)CC1 [Olaparib] (first compound max 1 µM, partner max 10 µM) | 0.944 | 0.662 | 0.218 | 0.52 | 0.568 | 0.335 | 0.856 | 0.377 | 0.612 | 0.587 | 0.51 | 0.403 | 0.77 | 0.678 | 0.606 | 0.273 | 0.776 | 0.508 | 0.756 | 0.679 |
| CCN(CCO)CCCOc1ccc2c(Nc3cc(CC(=O)Nc4cccc(F)c4)[nH]n3)ncnc2c1 [AZD2811] + C=CCn1c(=O)c2cnc(Nc3ccc(N4CCN(C)CC4)cc3)nc2n1-c1cccc(C(C)(C)O)n1 [AZD1775] (first compound max 1 µM, partner max 1 µM) | 0.902 | 0.607 | 0.161 | 0.496 | 0.688 | 0.327 | 0.809 | 0.203 | 0.633 | 0.592 | 0.458 | 0.346 | 0.744 | 0.569 | 0.631 | 0.365 | 0.737 | 0.468 | 0.767 | 0.568 |
| CN(CCO)CC[C@H](CSc1ccccc1)Nc1ccc(S(=O)(=O)NC(=O)c2ccc(N3CCC([C@@H](O)c4ccccc4-c4ccc(Cl)cc4)CC3)cc2)cc1S(=O)(=O)C(F)(F)F [AZD4320] + Cc1cc2ncnn2cc1Nc1ncc2c(n1)n(C1CCOCC1)c(=O)n2C [AZD7648] (first compound max 1 µM, 7x7, partner max 10 µM) | 0.344 | 0.173 | 0.48 | 0.171 | 0.271 | 0.197 | 0.246 | 0.885 | 0.21 | 1 | 0.37 | 0.245 | 0.168 | – | 0.0909 | 0.209 | 0.18 | 0.594 | 0.61 | 0.0433 |
| COc1nnc2ccc(N3CCC(c4ccc(OCCN5CCN(C)C(=O)[C@H]5C)cc4)CC3)nn12 [AZD5153] + CN(CC[C@H](CSC1=CC=CC=C1)NC2=C(C=C(C=C2)S(=O)(=O)NC(=O)C3=CC=C(C=C3)N4CCC(CC4)[C@H](C5=CC=CC=C5C6=CC=C(C=C6)Cl)O)S(=O)(=O)C(F)(F)F)CCO [AZD4320] (first compound max 1 µM, 7x7, partner max 1 µM) | 1 | – | 0.322 | 0.587 | – | – | 0.71 | – | 0.401 | 1 | 0.66 | 0.419 | 0.772 | – | – | – | – | – | 0.9 | 0.419 |
| CC(=O)c1c(C)c2cnc(Nc3ccc(N4CCNCC4)cn3)nc2n(C2CCCC2)c1=O [Palbociclib] + CN(CC[C@H](CSC1=CC=CC=C1)NC2=C(C=C(C=C2)S(=O)(=O)NC(=O)C3=CC=C(C=C3)N4CCC(CC4)[C@H](C5=CC=CC=C5C6=CC=C(C=C6)Cl)O)S(=O)(=O)C(F)(F)F)CCO [AZD4320] (first compound max 10 µM, 7x7, partner max 1 µM) | 0.867 | – | 0.32 | 0.405 | – | – | 0.59 | – | 0.172 | 1 | 0.658 | 0.184 | 0.337 | – | – | – | – | – | 0.872 | 0.126 |
| CCc1c2c(nc3ccc(O)cc13)-c1cc3c(c(=O)n1C2)COC(=O)[C@]3(O)CC [SN-38] + O=C(c1cc(Cc2n[nH]c(=O)c3ccccc23)ccc1F)N1CCN(C(=O)C2CC2)CC1 [Olaparib] (first compound max 0.3 µM, 7x7, partner max 10 µM) | – | 0.829 | – | 0.609 | 0.722 | 0.532 | 0.973 | 0.0964 | – | – | 0.598 | 0.575 | 0.986 | 0.957 | 0.261 | 0.892 | 0.863 | 0.95 | 0.848 | 0.932 |
| C[C@@H](c1ccc2nccn2c1)n1nnc2ncc(-c3cnn(C)c3)nc21 [Savolitinib] + CN(CC[C@H](CSC1=CC=CC=C1)NC2=C(C=C(C=C2)S(=O)(=O)NC(=O)C3=CC=C(C=C3)N4CCC(CC4)[C@H](C5=CC=CC=C5C6=CC=C(C=C6)Cl)O)S(=O)(=O)C(F)(F)F)CCO [AZD4320] (first compound max 1 µM, 7x7, partner max 1 µM) | 0.128 | – | 0.412 | 0.176 | – | – | 0.117 | – | 0.174 | 1 | 0.308 | 0.182 | 0.116 | – | – | – | – | – | 0.465 | 0.0887 |
